Molecules are shown by their SMILES. Converted amounts (≈) assume the structure as drawn.

Our source for the MIC80 values is ChEMBL document CHEMBL3112568, “Synthesis, antifungal activities and molecular docking studies of novel 2-(2,4-difluorophenyl)-2-hydroxy-3-(1H-1,2,4-triazol-1-yl)propyl dithiocarbamates” (2014).

Common to all, as to format: functional
For experiment [1], the system named is Trichophyton rubrum. Description: Antifungal activity against Trichophyton rubrum by micro-broth dilution method.
The test system of experiment [2] is Nannizzia gypsea. Description: Antifungal activity against Microsporum gypseum by micro-broth dilution method.
For experiment [3], the system named is Aspergillus fumigatus. As to the kind of experiment: Antifungal activity against Aspergillus fumigatus by micro-broth dilution method.
In experiment [4] the test system is Candida parapsilosis. As to the kind of experiment: Antifungal activity against Candida parapsilosis by micro-broth dilution method. Particulars: Lodderomyces parapsilosis.
Experiment [5] has as its system Nakaseomyces glabratus. As to the kind of experiment: Antifungal activity against Candida glabrata by micro-broth dilution method.
The test system of experiment [6] is Candida albicans. Description: Antifungal activity against Candida albicans Y0109 after 24 hrs by micro-broth dilution method. Particulars: Y0109, 24 h.
The test system of experiment [7] is Candida albicans. Description: Antifungal activity against Candida albicans SC5314 after 24 hrs by micro-broth dilution method. Particulars: SC5314, 24 h.
The subject of experiment [8] is Cryptococcus neoformans. As to the kind of experiment: Antifungal activity against Cryptococcus neoformans after 72 hrs by micro-broth dilution method.

Take `CC(=O)N1CCN(c2ccc(OCC3COC(Cn4ccnc4)(c4ccc(Cl)cc4Cl)O3)cc2)CC1` (stereo unspecified) [KETOCONAZOLE]: the MIC80 in experiment [1] turned out to be 0.125 µg/mL (≈ 0.235 µM); in experiment [2] it was 1 µg/mL (≈ 1.88 µM); in experiment [3], 4 µg/mL (≈ 7.53 µM); in experiment [4], 0.5 µg/mL (≈ 0.941 µM); in experiment [5], 0.5 µg/mL (≈ 0.941 µM); in experiment [6] it was 0.25 µg/mL (≈ 0.47 µM). In addition, the MIC80 is at most 0.125 µg/mL in experiment [7] and 0.25 µg/mL (≈ 0.47 µM) in experiment [8].
In the case of `CN(C/C=C/C#CC(C)(C)C)Cc1cccc2ccccc12` [TERBINAFINE], the MIC80 was determined as 0.0625 µg/mL (≈ 0.214 µM) in experiment [1]; 0.0625 µg/mL (≈ 0.214 µM) in experiment [2]; 0.25 µg/mL (≈ 0.858 µM) in experiment [3]; 1 µg/mL (≈ 3.43 µM) in experiment [4]; 2 µg/mL (≈ 6.86 µM) in experiment [5]; 16 µg/mL (≈ 54.9 µM) in experiment [6]. For the same molecule, the results for the MIC80 in experiment [7] and in experiment [8] were 4 µg/mL (≈ 13.7 µM) and 0.25 µg/mL (≈ 0.858 µM), respectively.
